Laboratory results taken from ChEMBL document CHEMBL5236579, “Hydrophobicity Determines the Bacterial Killing Rate of α-Helical Antimicrobial Peptides and Influences the Bacterial Resistance Development” (J Med Chem, 2022).
In brackets after ≈: the same amount, converted by molar mass. Activity calls are given as the source filed them. The calls are words filed in the database; no cut-off is given here. Where a SMILES comes first, the peptide text is derived from it.

Experiments:
Vibrio parahaemolyticus [1] = experiment: Antimicrobial activity against Vibrio parahaemolyticus ATCC17802 by two fold broth microdilution method; assay type: functional
Bacillus cereus = experiment: Antimicrobial activity against clinical isolates Bacillus cereus by two fold broth microdilution method; assay type: functional
Cell membrane = experiment: Induction of inner membrane permeabilization in Vibrio parahaemolyticus ATCC17802 assessed as increase in PI fluorescence intensity at 5 times MIC by propidium iodide penetration assay; assay type: cell membranes; details: time <= 200.0 min
Escherichia coli = experiment: Antimicrobial activity against Escherichia coli ATCC27622 by two fold broth microdilution method; assay type: functional
Staphylococcus aureus [2] = experiment: Antimicrobial activity against Staphylococcus aureus ATCC25923 by two fold broth microdilution method; assay type: functional
Vibrio parahaemolyticus [3] = experiment: Bactericidal activity against Vibrio parahaemolyticus ATCC17802 assessed as killing rate at 0.5 X MIC by measuring time limit of detection by bacterial killing kinetic assay; assay type: functional
Staphylococcus aureus [4] = experiment: Antimicrobial activity against clinical isolates Staphylococcus aureus by two fold broth microdilution method; assay type: functional
Peritoneal macrophage = experiment: Cytotoxicity against mouse peritoneal macrophage cells incubated for 48 hrs by MTT assay; assay type: toxicity, cell-based; details: dose < 250 µg/ml
Vibrio parahaemolyticus [5] = experiment: Induction of morphological changes in Vibrio parahaemolyticus ATCC17802 assessed as massive cell collapse incubated at 5 times MIC and measured after 180 mins by scanning electron microscopy based analysis; assay type: functional, organism-based
Vibrio parahaemolyticus [6] = experiment: Induction of morphological changes in Vibrio parahaemolyticus ATCC17802 assessed as cellular inclusion leakage incubated at 5 times MIC and measured after 180 mins by scanning electron microscopy based analysis; assay type: functional, organism-based
HaCaT = experiment: Cytotoxicity against human HaCaT cells incubated for 48 hrs by MTT assay; assay type: toxicity, cell-based; details: dose < 250 µg/ml
Vibrio parahaemolyticus [7] = experiment: Induction of morphological changes in Vibrio parahaemolyticus ATCC17802 assessed as surface fibrosis incubated at 5 times MIC and measured after 180 mins by scanning electron microscopy based analysis; assay type: functional, organism-based

Row | Structure (SMILES) | MIC (Vibrio parahaemolyticus [1]) | MIC (Bacillus cereus) | Activity (Cell membrane) | MIC (Escherichia coli) | MIC (Staphylococcus aureus [2]; read-out: MIC) | Time (Vibrio parahaemolyticus [3]) | MIC (Staphylococcus aureus [4]) | Activity (Peritoneal macrophage) | Activity (Vibrio parahaemolyticus [5]) | Activity (Vibrio parahaemolyticus [6]) | Activity (HaCaT) | Activity (Vibrio parahaemolyticus [7]) | MIC (Staphylococcus aureus [2])
1 | CC[C@H](C)[C@H](NC(=O)[C@H](C)NC(=O)[C@H](CCCNC(=N)N)NC(=O)[C@H](C)NC(=O)[C@H](CC(C)C)NC(=O)[C@H](CCCCN)NC(=O)[C@H](CCCCN)NC(=O)[C@H](Cc1ccccc1)NC(=O)[C@H](CC(C)C)NC(=O)CNC(=O)[C@H](C)N)C(=O)N[C@@H](CCCCN)C(=O)N[C@@H](CCCCN)C(=O)NCC(=O)N[C@@H](Cc1ccccc1)C(=O)N[C@@H](CCCCN)C(=O)N[C@@H](CC(C)C)C(=O)O (H-AGLFKKLARAIKKGFKL-OH) | 4.69 mg/L (≈ 2.48 µM) | 9.38 mg/L (≈ 4.96 µM) | Active | 9.38 mg/L (≈ 4.96 µM) | 4.69 mg/L (≈ 2.48 µM) | >180 min | 18.8 mg/L (≈ 9.92 µM) |  |  |  |  |  | 
2 | CC[C@H](C)[C@H](NC(=O)[C@H](CCCCN)NC(=O)[C@H](CCCNC(=N)N)NC(=O)[C@H](C)NC(=O)[C@H](CC(C)C)NC(=O)[C@H](CCCCN)NC(=O)[C@H](CCCCN)NC(=O)[C@H](Cc1ccccc1)NC(=O)[C@H](CC(C)C)NC(=O)CNC(=O)[C@@H](N)CCCNC(=N)N)C(=O)N[C@@H](CCCCN)C(=O)N[C@@H](CCCCN)C(=O)NCC(=O)N[C@@H](Cc1ccccc1)C(=O)N[C@@H](CCCCN)C(=O)N[C@@H](CCCCN)C(=O)O (H-RGLFKKLARKIKKGFKK-OH) | 4.69 mg/L (≈ 2.29 µM) | 9.38 mg/L (≈ 4.58 µM) | Active | 9.38 mg/L (≈ 4.58 µM) | 4.69 mg/L (≈ 2.29 µM) | >180 min | 37.5 mg/L (≈ 18.3 µM) | Dose-Dependent Effect | Active | Active | Dose-Dependent Effect | Active | 
3 | CC[C@H](C)[C@H](NC(=O)[C@H](C)NC(=O)[C@H](CCCNC(=N)N)NC(=O)[C@H](C)NC(=O)[C@H](CC(C)C)NC(=O)[C@H](CCCCN)NC(=O)[C@H](CCCCN)NC(=O)[C@H](Cc1ccccc1)NC(=O)[C@H](CC(C)C)NC(=O)CNC(=O)[C@H](C)N)C(=O)N[C@@H](CCCCN)C(=O)N[C@@H](CCCCN)C(=O)NCC(=O)N[C@@H](Cc1ccccc1)C(=O)N[C@@H](CCCCN)C(=O)N[C@@H](CCCCN)C(=O)O (H-AGLFKKLARAIKKGFKK-OH) | 4.69 mg/L (≈ 2.46 µM) | 9.38 mg/L (≈ 4.93 µM) | Active | 9.38 mg/L (≈ 4.93 µM) | 4.69 mg/L (≈ 2.46 µM) | >180 min | 18.8 mg/L (≈ 9.85 µM) | Dose-Dependent Effect | Active | Active | Dose-Dependent Effect | Active | 
4 | CC[C@H](C)[C@H](NC(=O)[C@H](CC(C)C)NC(=O)[C@H](CCCNC(=N)N)NC(=O)[C@H](CC(C)C)NC(=O)[C@H](CC(C)C)NC(=O)[C@H](CC(C)C)NC(=O)[C@H](CCCCN)NC(=O)[C@H](Cc1ccccc1)NC(=O)[C@H](CC(C)C)NC(=O)CNC(=O)[C@@H](N)CC(C)C)C(=O)N[C@@H](CC(C)C)C(=O)N[C@@H](CCCCN)C(=O)NCC(=O)N[C@@H](Cc1ccccc1)C(=O)N[C@@H](CCCCN)C(=O)N[C@@H](CC(C)C)C(=O)O (H-LGLFKLLLRLILKGFKL-OH) | > 200 mg/L | > 200 mg/L |  | > 200 mg/L |  |  | > 200 mg/L |  |  |  |  |  | > 200 mg/L
5 | CC[C@H](C)[C@H](NC(=O)[C@H](C)NC(=O)[C@H](CCCNC(=N)N)NC(=O)[C@H](C)NC(=O)[C@H](CC(C)C)NC(=O)[C@H](CCCCN)NC(=O)[C@H](CCCCN)NC(=O)[C@H](Cc1ccccc1)NC(=O)[C@H](CC(C)C)NC(=O)CNC(=O)[C@@H](N)CCCNC(=N)N)C(=O)N[C@@H](CCCCN)C(=O)N[C@@H](CCCCN)C(=O)NCC(=O)N[C@@H](Cc1ccccc1)C(=O)N[C@@H](CCCCN)C(=O)N[C@@H](CCCCN)C(=O)O (H-RGLFKKLARAIKKGFKK-OH) | 4.69 mg/L (≈ 2.36 µM) | 18.8 mg/L (≈ 9.42 µM) | Active | 9.38 mg/L (≈ 4.71 µM) | 9.38 mg/L (≈ 4.71 µM) | >180 min | 18.8 mg/L (≈ 9.42 µM) |  |  |  |  |  | 
6 | CC[C@H](C)[C@H](NC(=O)[C@H](CCCCN)NC(=O)[C@H](CCCNC(=N)N)NC(=O)[C@H](CCCNC(=N)N)NC(=O)[C@H](CC(C)C)NC(=O)[C@H](CCCCN)NC(=O)[C@H](CCCCN)NC(=O)[C@H](Cc1ccccc1)NC(=O)[C@H](CC(C)C)NC(=O)CNC(=O)[C@H](CCCNC(=N)N)NC(=O)[C@@H](N)CCCNC(=N)N)C(=O)N[C@@H](CCCCN)C(=O)N[C@@H](CCCCN)C(=O)NCC(=O)N[C@@H](Cc1ccccc1)C(=O)N[C@@H](CCCCN)C(=O)N[C@@H](CCCCN)C(=O)N[C@H](C(=O)N[C@@H](Cc1ccccc1)C(=O)N[C@@H](CCCCN)C(=O)N[C@@H](CCCNC(=N)N)C(=O)N[C@@H](CC(C)C)C(=O)N1CCC[C@H]1C(=O)N1CCC[C@H]1C(=O)N[C@H](C(=O)NCC(=O)N[C@H](C(=O)NCC(=O)N[C@H](C(=O)N[C@@H](CO)C(=O)N[C@H](C(=O)N1CCC[C@H]1C(=O)N[C@@H](CC(C)C)C(=O)N[C@@H](C)C(=O)NCC(=O)N[C@@H](CCCNC(=N)N)C(=O)N[C@@H](CCCNC(=N)N)C(=O)O)[C@@H](C)CC)C(C)C)C(C)C)C(C)C)[C@@H](C)CC (H-RRGLFKKLRRKIKKGFKKIFKRLPPVGVGVSIPLAGRR-OH) | 4.69 mg/L (≈ 1.07 µM) | 4.69 mg/L (≈ 1.07 µM) |  | 9.38 mg/L (≈ 2.13 µM) | 4.69 mg/L (≈ 1.07 µM) | 120 min | 9.38 mg/L (≈ 2.13 µM) |  |  |  |  |  | 
